Assay results reported in patent US11339171B2, “MDM2 inhibitors” (Gan & Lee Pharmaceuticals, priority 2017, dated 2022).
Where “and” joins values, the source holds several entries; their conditions need not be identical. Equal values may be shown once. Read-outs that look alike come from different tables or passages of the source.

Assays:
MDM2 = molecular target: T1, MDM2 (Homo sapiens, UniProt Q00987); experiment: Inhibition test of MDM2-P53 (GST-MDM2, Biotin-P53, Anti-GST-Tb, SA-XL665); type: binding
T1 construct: made in house
T1 sequence (Q00987 whole entry): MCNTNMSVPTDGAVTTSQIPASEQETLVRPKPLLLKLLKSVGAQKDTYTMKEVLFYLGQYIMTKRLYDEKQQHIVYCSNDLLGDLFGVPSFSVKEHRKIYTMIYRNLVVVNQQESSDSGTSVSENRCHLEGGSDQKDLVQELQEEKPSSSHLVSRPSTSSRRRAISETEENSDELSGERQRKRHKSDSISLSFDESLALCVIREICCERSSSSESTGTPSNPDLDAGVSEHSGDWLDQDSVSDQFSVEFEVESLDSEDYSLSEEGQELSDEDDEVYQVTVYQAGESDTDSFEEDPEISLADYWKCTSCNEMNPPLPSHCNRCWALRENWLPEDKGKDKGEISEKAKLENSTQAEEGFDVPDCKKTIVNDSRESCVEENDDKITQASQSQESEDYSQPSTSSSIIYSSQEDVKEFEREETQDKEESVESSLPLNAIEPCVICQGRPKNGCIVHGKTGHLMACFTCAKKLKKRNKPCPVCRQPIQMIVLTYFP
How it was run: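 Compounds, serially diluted 5-fold (twelve concentrations), were shaken for 90 min at 25° C with a mix of GST-MDM2 (4 nM final), Biotin-P53, anti-GST-Tb and SA-XL665. Buffer: 1×PBS, 0.1% BSA, 5 mM DTT, 1 mM AEBSF; signal read on a microplate reader.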

[1] = Pharmacokinetics in ICR mice after intravenous and intragastric administration; type: in vivo; details: for MRT last: read-out: MRT(0-t); for MRT inf: read-out: MRT(0-∞); for Tmax: read-out: Tmax; for Vd: read-out: Vz
How it was run: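 Male ICR mice aged 6-9 weeks are dosed after an overnight fast, intravenously at 2 mg/kg and orally by gavage at 5 mg/kg. Plasma drug is measured by LC-MS/MS over a 1-2000 ng/ml range.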

[2] = system: human osteosarcoma cell line SJSA-1; experiment: Inhibition of proliferation of human osteosarcoma cell line SJSA-1 (DAPI staining, In Cell Analyzer); details: Homo sapiens, SJSA-1, 72 h, read-out: IC50 (nM), inhibitory activity on proliferation of human osteosarcoma cell line SJSA-1, SJSA-1, incubated 72 h
[3] = ICR mice, IV 2 mg/kg, individual animal, 2 mg/kg
[4] = ICR mice, PO 5 mg/kg, individual animal, 5 mg/kg
[5] = male, ICR, mouse, plasma, iv, 2 mg/kg, ICR mice, IV 2 mg/kg, individual animal
[6] = male, ICR, mouse, plasma, iv, 2 mg/kg, ICR mice, IV 2 mg/kg, mean of 3 animals
[7] = male, ICR, mouse, plasma, po, 5 mg/kg, ICR mice, PO 5 mg/kg, individual animal
[8] = male, ICR, mouse, plasma, po, 5 mg/kg, ICR mice, PO 5 mg/kg, mean of 3 animals

Which IC50 (MDM2) does the source give for COc1cc(OC)c(-c2nc3c(n2C(C)C)[C@@]2(C(=O)Nc4cc(Cl)ccc42)N(c2cc(Cl)cnc2C)C3=O)cn1 [Example S-131, (S)-6-chloro-5′-(5-chloro-2-methylpyridin-3-yl)-2′-(4,6-dimethoxypyridin-3-yl)-3′-isopropyl-3′H-spiro[dihydroindole-3,4′-pyrrolo[3,4-d]imidazole]-2,6′(5′H)-dione] here?
The IC50 was 0.00117 µM.

And the “AUC(0-t)” value [1, 3]?
Its value is 1579.23 ng·h/mL and 1776.79 ng·h/mL.

And the “AUC(0-∞)” value [1, 3]?
Its value is 1594.10 ng·h/mL and 1788.59 ng·h/mL.

What about the CL [1, 3] of the same compound?
Its CL is 20.91 mL/min/kg and 18.64 mL/min/kg.

And the Cmax [1, 3]?
Its Cmax is 2021.33 ng/mL and 1997.01 ng/mL.

And the “MRT(0-t)” value [1, 3]?
The value was 0.90 h and 0.94 h.

And the “MRT(0-∞)” value [1, 3]?
Its value is 0.96 h and 0.98 h.

What about the Vz [1, 3] of the same compound?
The Vz was 1.78 L/kg and 1.45 L/kg.

And the t1/2 [1, 3]?
The t1/2 was 0.98 h and 0.90 h.

What about the “AUC(0-t)” value [1, 4] of the same compound?
The value was 5902.77 ng·h/mL and 6839.45 ng·h/mL.

What about the “AUC(0-∞)” value [1, 4] of the same compound?
The value was 6003.28 ng·h/mL and 7052.50 ng·h/mL.

And the Cmax [1, 4]?
Its Cmax is 1853.01 ng/mL and 1794.96 ng/mL.

What about the “MRT(0-t)” value [1, 4] of the same compound?
Its value is 2.27 h and 2.45 h.

What about the “MRT(0-∞)” value [1, 4] of the same compound?
The value was 2.40 h and 2.68 h.

And the t1/2 [1, 4]?
The t1/2 was 1.28 h and 1.47 h.

What about the AUC(0-inf) [1, 5] of the same compound?
The AUC(0-inf) was 1260 ng·h/mL.

What about the clearance [1, 5] of the same compound?
The clearance was 26.4 mL/min/kg.

And the AUC(0-t) ([1]; male, ICR, mouse, plasma, iv, 2 mg/kg, ICR mice, IV 2 mg/kg, individual animal, read-out: AUC(0-t))?
Its AUC(0-t) is 1260 ng·h/mL.

What about the Cmax ([1]; male, ICR, mouse, plasma, iv, 2 mg/kg, ICR mice, IV 2 mg/kg, individual animal, read-out: Cmax) of the same compound?
Its Cmax is 1780 ng/mL.

What about the MRT last [1, 5] of the same compound?
Its MRT last is 0.71 h.

What about the MRT inf [1, 5] of the same compound?
Its MRT inf is 0.73 h.

And the Tmax [1, 5]?
The Tmax was 0.08 h.

What about the Vd [1, 5] of the same compound?
The Vd was 1.73 L/kg.

And the half-life ([1]; male, ICR, mouse, plasma, iv, 2 mg/kg, ICR mice, IV 2 mg/kg, individual animal, read-out: t1/2 (converted))?
Its half-life is 0.76 h.

What about the AUC(0-inf) [1, 6] of the same compound?
Its AUC(0-inf) is 1550 ng·h/mL.

And the clearance [1, 6]?
Its clearance is 22 mL/min/kg.

What about the AUC(0-t) ([1]; male, ICR, mouse, plasma, iv, 2 mg/kg, ICR mice, IV 2 mg/kg, mean of 3 animals, read-out: AUC(0-t)) of the same compound?
The AUC(0-t) was 1540 ng·h/mL.

What about the Cmax ([1]; male, ICR, mouse, plasma, iv, 2 mg/kg, ICR mice, IV 2 mg/kg, mean of 3 animals, read-out: Cmax) of the same compound?
The Cmax was 1930 ng/mL.

And the MRT last [1, 6]?
Its MRT last is 0.85 h.

What about the MRT inf [1, 6] of the same compound?
Its MRT inf is 0.89 h.

And the Tmax [1, 6]?
The Tmax was 0.083 h.

What about the Vd [1, 6] of the same compound?
Its Vd is 1.65 L/kg.

And the half-life ([1]; male, ICR, mouse, plasma, iv, 2 mg/kg, ICR mice, IV 2 mg/kg, mean of 3 animals, read-out: t1/2 (converted))?
The half-life was 0.88 h.

And the AUC(0-inf) [1, 7]?
Its AUC(0-inf) is 3770 ng·h/mL.

And the AUC(0-t) ([1]; male, ICR, mouse, plasma, po, 5 mg/kg, ICR mice, PO 5 mg/kg, individual animal, read-out: AUC(0-t))?
Its AUC(0-t) is 3740 ng·h/mL.

What about the Cmax ([1]; male, ICR, mouse, plasma, po, 5 mg/kg, ICR mice, PO 5 mg/kg, individual animal, read-out: Cmax) of the same compound?
Its Cmax is 1440 ng/mL.

What about the MRT last [1, 7] of the same compound?
Its MRT last is 1.9 h.

What about the MRT inf [1, 7] of the same compound?
Its MRT inf is 1.95 h.

What about the Tmax [1, 7] of the same compound?
Its Tmax is 1 h.

And the half-life ([1]; male, ICR, mouse, plasma, po, 5 mg/kg, ICR mice, PO 5 mg/kg, individual animal, read-out: t1/2 (converted))?
Its half-life is 1.03 h.

What about the AUC(0-inf) [1, 8] of the same compound?
Its AUC(0-inf) is 5610 ng·h/mL.

What about the AUC(0-t) ([1]; male, ICR, mouse, plasma, po, 5 mg/kg, ICR mice, PO 5 mg/kg, mean of 3 animals, read-out: AUC(0-t)) of the same compound?
The AUC(0-t) was 5500 ng·h/mL.

What about the Cmax ([1]; male, ICR, mouse, plasma, po, 5 mg/kg, ICR mice, PO 5 mg/kg, mean of 3 animals, read-out: Cmax) of the same compound?
The Cmax was 1700 ng/mL.

And the MRT last [1, 8]?
The MRT last was 2.21 h.

What about the MRT inf [1, 8] of the same compound?
The MRT inf was 2.34 h.

And the Tmax [1, 8]?
The Tmax was 1 h.

What about the half-life ([1]; male, ICR, mouse, plasma, po, 5 mg/kg, ICR mice, PO 5 mg/kg, mean of 3 animals, read-out: t1/2 (converted)) of the same compound?
The half-life was 1.26 h.

What about the AUC(0-t) ([1]; male, ICR, mouse, plasma, po, 5 mg/kg, oral intragastric administration 5 mg/kg, read-out: AUC0-t) of the same compound?
The AUC(0-t) was 5500 ng·h/mL.

And the half-life ([1]; male, ICR, mouse, plasma, po, 5 mg/kg, oral intragastric administration 5 mg/kg, read-out: half-life (converted))?
Its half-life is 1.26 h.

What about the bioavailability ([1]; male, mouse, plasma, ICR mice, PO 5 mg/kg vs IV 2 mg/kg, from mean values, read-out: F* (bioavailability)) of the same compound?
Its bioavailability is 143%.

What about the IC50 [2] of the same compound?
Its IC50 is 46.3 nM.
